Measurements as given in patent US5605921A, “Triazole derivatives and salts thereof, and antifungal agent containing the same” (Toyama Chemical Co., Ltd., priority 1991, dated 1997).
Values after ≈ are worked out from the molar mass of the structure shown.

Legend:
Candida albicans ON28 [1] = experiment: Minimum inhibitory concentration (MIC) against Candida albicans ON28; format: cell-based; conditions: ON28, 72 h, TC broth medium, 10^4 spores/ml, 37° C., 3 days
Protocol: (§1) MIC was determined in accordance with the method of M. S. Marriott [25th Interscience Conference on Antimicrobial Agents and Chemotherapy, p. 243 (1985)].
(§2) Candida albicans ON28 was cultured in a sabouraud dextrose agar medium containing 10 g of neopeptone, 20 g of glucose and 15 g of agar per liter, at 30° C. for 1-2 days. The yeast cells were suspended in sterile distilled water. Separately, Aspergillus fumigatus IFO8868 was cultured in a potato dextrose agar medium (manufactured by Nissui Pharmaceutical Co., Ltd.) at 30° C. until the conidia were formed abundantly. The formed conidia were suspended in a sterile physiological saline containing 0.1% of Tween 80. Each of the Candida albicans suspension and the Aspergillus fumigatus suspension was inoculated into a TC broth medium (containing 1.17 g of an yeast carbon base, 0.25 g of ammonium sulfate, 2.0 ml of a 50-fold concentrate of L-glutamic acid-containing MEM amino acid, 20 ml of a 0.5M phosphate buffer of pH 7.5 and 1.33 ml of 7.5% sodium hydrogencarbonate per 100 ml) containing a test compound, so that the final fungal amount became 10^4 spores/ml. Then, culture was conducted at 37° C. for 3 days. Thereafter, the growth of fungi was examined. The minimum concentration of test compound at which the growth of fungi had been inhibited, was taken as MIC (μg/ml).

[2] = system: Aspergillus fumigatus IFO8868; experiment: Minimum inhibitory concentration (MIC) against Aspergillus fumigatus IFO8868; format: cell-based; conditions: IFO8868, 72 h, TC broth medium, 10^4 spores/ml, 37° C., 3 days
Protocol: as §1, §2

[3] = system: Aspergillus fumigatus IFO8868; experiment: Therapeutic effect, oral, mice infected with Aspergillus fumigatus IFO8868 (4), Table 2d; format: in vivo; conditions: average survival days of Ketoconazole taken as 100; Aspergillus fumigatus 5.8×10^6 cells/mouse i.v.; 0.8 mg/mouse oral, 2 hours after infection and once daily for six consecutive days; 10 days observation; 10 mice
Protocol: (4) The therapeutic effects of the present compounds, when they were administered orally, were examined using mice infected with Aspergillus fumigatus IFO8868.
(§3) Aspergillus fumigatus IFO8868 was injected in a proportion of 5.8×10^6 cells/mouse to a group of 10 ICR strain male mice (weight: 19-21 g) intravenously at the tails, whereby the mice were infected with the fungi. […] The relative therapeutic index of the test compound was determined from the average survival days.
The results are shown in Table 2d, in which the relative therapeutic index of each test compound is a value calculated by taking the average survival days of Ketoconazole as 100.

Candida albicans ON28 [4] = experiment: Therapeutic effect, oral, mice infected with Candida albicans ON28 (3), Table 2c; format: in vivo, ICR strain male mice infected with Candida albicans ON28; conditions: average survival days of Ketoconazole taken as 100; Candida albicans 5.7×10^6 cells/mouse i.v.; 0.1 mg/mouse oral, 2 hours after infection; 10 days observation; 10 mice
Protocol: (3) The therapeutic effects of the present compounds, when they were administered orally, were examined using mice infected with Candida albicans ON28.
as §3, with “Candida albicans ON28” for “Aspergillus fumigatus IFO8868”, “5.7×10^6” for “5.8×10^6”
The results are shown in Table 2c, in which the relative therapeutic index of each test compound is a value calculated by taking the average survival days Ketoconazole as 100.

[5] = Acute toxicity in mice, intravenous; format: in vivo; conditions: intravenous at the tail, ICR strain male mice, group of 5; 50% solution in polyethylene glycol 300
Protocol: Each of the compounds of Examples 10, 12, 19, 79, 142 and 146 was administered to a group of 5 ICR strain male mice (weight: 29-31 g) intravenously at the tails, and the acute toxicity of each compound was examined.
Each compound was administered in the form of a 50% solution in polyethylene glycol 300.

| MIC (Candida albicans ON28 [1]) [mg/L] | MIC [2] [mg/L] | Compound | Relative therapeutic index [3] | Relative therapeutic index (Candida albicans ON28 [4]) | dose up to which no dead case occurred (acute toxicity) [5] [mg/kg] |
| --- | --- | --- | --- | --- | --- |
| ≤ 0.05 | 25 (≈ 66.8 µM) | CC(C)CNC(=O)C(F)(F)C(O)(Cn1cncn1)c1ccc(F)cc1F (stereo not shown) [Example 35] |  |  |  |
| 0.39 (≈ 1.26 µM) | 50 (≈ 161 µM) | CCNC(=O)C(F)(F)C(O)(Cn1cncn1)c1ccccc1 (stereo not shown) [Example 69] |  |  |  |
| 0.2 (≈ 0.602 µM) | 100 (≈ 301 µM) | CNC(=O)C(F)(F)C(O)(Cn1cncn1)c1ccc(F)cc1F (stereo not shown) [Example 11] | 174 | 423 |  |
| 0.1 (≈ 0.267 µM) | 12.5 (≈ 33.4 µM) | CC(C)(C)NC(=O)C(F)(F)C(O)(Cn1cncn1)c1ccc(F)cc1F (stereo not shown) [Example 51] |  |  |  |
| 0.2 (≈ 0.58 µM) | 6.25 (≈ 18.1 µM) | CCNC(=O)C(F)(F)C(O)(Cn1cncn1)c1ccccc1Cl (stereo not shown) [Example 75] |  |  |  |
| 6.25 (≈ 15 µM) | 100 (≈ 240 µM) | CC1CN(C(=O)C(F)(F)C(O)(Cn2cncn2)c2ccc(F)cc2F)CC(C)O1 (stereo not shown) [Example 39, 4-[3-(2,4-difluorophenyl)-2,2-difluoro-3-hydroxy-4-(1H-1,2,4-triazol-1-yl)butanoyl]-2,6-dimethylmorpholine] |  |  |  |
| ≤ 0.05 | 50 (≈ 117 µM) | O=C(Nc1ccc(Cl)cc1)C(F)(F)C(O)(Cn1cncn1)c1ccc(F)cc1F (stereo not shown) [Example 42, N-(4-chlorophenyl)-3-(2,4-difluorophenyl)-2,2-difluoro-3-hydroxy-4-(1H-1,2,4-triazol-1-yl)butanamide] |  |  |  |
| 0.39 (≈ 1.13 µM) | 25 (≈ 72.2 µM) | CCNC(=O)C(F)(F)C(O)(Cn1cncn1)c1cc(F)ccc1F (stereo not shown) [Example 117] |  |  |  |
| 0.39 (≈ 1.12 µM) | 12.5 (≈ 35.8 µM) | CNC(=O)C(F)(F)C(O)(Cn1cncn1)c1ccc(F)cc1Cl (stereo not shown) [Example 80] | 416 | 455 |  |
| 0.025 (≈ 0.0541 µM) | 12.5 (≈ 27 µM) | O=C(Nc1ccc(C(F)(F)F)cc1)C(F)(F)C(O)(Cn1cncn1)c1ccc(F)cc1F (stereo not shown) [Example 136] |  |  |  |
| 0.1 (≈ 0.267 µM) | 3.13 (≈ 8.35 µM) | O=C(NC1CC1)C(F)(F)C(O)(Cn1cncn1)c1ccc(F)cc1Cl (single isomer, unassigned) [Example 148] |  |  |  |
| ≤ 0.05 | 50 (≈ 118 µM) | COc1ccccc1NC(=O)C(F)(F)C(O)(Cn1cncn1)c1ccc(F)cc1F (stereo not shown) [Example 45] |  |  |  |
| 0.39 (≈ 1.19 µM) | 25 (≈ 76.2 µM) | CCNC(=O)C(F)(F)C(O)(Cn1cncn1)c1ccccc1F (stereo not shown) [Example 73] |  |  |  |
| ≤ 0.05 | 25 (≈ 61.2 µM) | Cc1ccc(NC(=O)C(F)(F)C(O)(Cn2cncn2)c2ccc(F)cc2F)cc1 (stereo not shown) [Example 43] |  |  |  |
| 0.39 (≈ 0.999 µM) | 100 (≈ 256 µM) | NC(=O)C(F)(Cc1ccccc1)C(O)(Cn1cncn1)c1ccc(F)cc1F (stereo not shown) [Example 56] |  |  |  |
| 0.39 (≈ 1.09 µM) | 12.5 (≈ 35 µM) | O=C(NC1CC1)C(F)(F)C(O)(Cn1cncn1)c1ccccc1Cl (stereo not shown) [Example 3] |  |  |  |
| 0.2 (≈ 0.549 µM) | 50 (≈ 137 µM) | CCNC(=O)C(F)(F)C(O)(Cn1cncn1)c1cc(F)c(F)cc1F (stereo not shown) [Example 88] |  |  |  |
| 0.05 (≈ 0.118 µM) | 12.5 (≈ 29.5 µM) | COc1ccc(NC(=O)C(F)(F)C(O)(Cn2cncn2)c2ccc(F)cc2F)cc1 (stereo not shown) [Example 139] |  |  |  |
| 0.1 (≈ 0.276 µM) | 25 (≈ 68.9 µM) | CCNC(=O)C(F)(F)C(O)(Cn1cncn1)c1ccc(Cl)cc1F (stereo not shown) [Example 83] |  |  |  |

| MIC (Candida albicans ON28 [1]) [mg/L] | MIC [2] [mg/L] | Compound | Relative therapeutic index [3] | Relative therapeutic index (Candida albicans ON28 [4]) | dose up to which no dead case occurred (acute toxicity) [5] [mg/kg] |
| --- | --- | --- | --- | --- | --- |
| 0.1 (≈ 0.276 µM) | 3.13 (≈ 8.63 µM) | CCNC(=O)C(F)(F)C(O)(Cn1cncn1)c1ccc(F)cc1Cl (stereo not shown) [Example 81] |  |  |  |
| ≤ 0.05 | 100 (≈ 259 µM) | O=C(NC1CCCC1)C(F)(F)C(O)(Cn1cncn1)c1ccc(F)cc1F (stereo not shown) [Example 20] |  |  |  |
| 0.1 (≈ 0.279 µM) | 12.5 (≈ 34.9 µM) | C=CCNC(=O)C(F)(F)C(O)(Cn1cncn1)c1ccc(F)cc1F (stereo not shown) [Example 17] |  |  |  |
| 0.1 (≈ 0.287 µM) | 6.25 (≈ 17.9 µM) | CNC(=O)C(F)(F)C(O)(Cn1cncn1)c1ccc(F)cc1Cl (single isomer, unassigned) [Example 147] | 526 | 414 |  |
|  |  | NC(=O)C(F)(F)C(O)(Cn1cncn1)c1ccc(F)cc1F (stereo not shown) [Example 10, 3-(2,4-difluorophenyl)-2,2-difluoro-3-hydroxy-4-(1H-1,2,4-triazol-1-yl)butanamide] | 200 | 414 | ≥ 200 |
| 0.2 (≈ 0.602 µM) | 25 (≈ 75.2 µM) | CNC(=O)C(F)(F)C(O)(Cn1cncn1)c1ccc(F)cc1F (single isomer, unassigned) [Example 143] | 242 | 450 |  |
| 0.1 (≈ 0.231 µM) | 12.5 (≈ 28.8 µM) | N#CCc1ccc(NC(=O)C(F)(F)C(O)(Cn2cncn2)c2ccc(F)cc2F)cc1 (stereo not shown) [Example 138] |  |  |  |
| ≤ 0.05 | 12.5 (≈ 26.7 µM) | O=C(NC1(c2ccc(Cl)cc2)CC1)C(F)(F)C(O)(Cn1cncn1)c1ccc(F)cc1F (stereo not shown) [Example 5] |  |  |  |
| 0.1 (≈ 0.256 µM) | 12.5 (≈ 32 µM) | O=C(NC1CC1)C(F)(F)C(O)(Cn1cncn1)c1ccc(Cl)cc1Cl (stereo not shown) [Example 85] |  |  |  |
| ≤ 0.05 | 100 (≈ 250 µM) | O=C(NC1CCCCC1)C(F)(F)C(O)(Cn1cncn1)c1ccc(F)cc1F (stereo not shown) [Example 21] |  |  |  |
| 0.1 (≈ 0.269 µM) | 50 (≈ 134 µM) | CC1(NC(=O)C(F)(F)C(O)(Cn2cncn2)c2ccc(F)cc2F)CC1 (stereo not shown) [Example 4] |  |  |  |
| 0.2 (≈ 0.555 µM) | 50 (≈ 139 µM) | CC(C)NC(=O)C(F)(F)C(O)(Cn1cncn1)c1ccc(F)cc1F (stereo not shown) [Example 33] |  |  |  |
| 0.78 (≈ 2.29 µM) | 25 (≈ 73.5 µM) | O=C(NC1CC1)C(F)(F)C(O)(Cn1cncn1)c1ccccc1F (stereo not shown) [Example 8, N-cyclopropyl-2,2-difluoro-3-(2-fluorophenyl)-3-hydroxy-4-(1H-1,2,4-triazol-1-yl)butanamide] |  |  |  |
| 0.05 (≈ 0.134 µM) | 12.5 (≈ 33.4 µM) | CCCCNC(=O)C(F)(F)C(O)(Cn1cncn1)c1ccc(F)cc1F (stereo not shown) [Example 114] |  |  |  |
| ≤ 0.05 | 25 (≈ 69.4 µM) | CCCNC(=O)C(F)(F)C(O)(Cn1cncn1)c1ccc(F)cc1F (stereo not shown) [Example 16] |  |  |  |
| ≤ 0.05 | 12.5 (≈ 28.2 µM) | O=C(NCc1ccc(Cl)cc1)C(F)(F)C(O)(Cn1cncn1)c1ccc(F)cc1F (stereo not shown) [Example 22] |  |  |  |
| 0.78 (≈ 2.36 µM) | 12.5 (≈ 37.8 µM) | CNC(=O)C(F)(F)C(O)(Cn1cncn1)c1ccccc1Cl (stereo not shown) [Example 74] |  |  |  |
| 0.39 (≈ 1.24 µM) | 50 (≈ 159 µM) | CNC(=O)C(F)(F)C(O)(Cn1cncn1)c1ccccc1F (stereo not shown) [Example 72] |  |  |  |
| ≤ 0.05 | 1.56 (≈ 3.69 µM) | Cc1ccc(NC(=O)C(F)(F)C(O)(Cn2cncn2)c2ccc(F)cc2F)c(C)c1 (stereo not shown) [Example 44] |  |  |  |

| Compound | MIC (Candida albicans ON28 [1]) [mg/L] | MIC [2] [mg/L] | Relative therapeutic index [3] | Relative therapeutic index (Candida albicans ON28 [4]) | dose up to which no dead case occurred (acute toxicity) [5] [mg/kg] |
| --- | --- | --- | --- | --- | --- |
| O=C(NC1CC1)C(F)(F)C(O)(Cn1cncn1)c1ccc(F)cc1F (single isomer, unassigned) [Example 145] | 0.1 (≈ 0.279 µM) | 12.5 (≈ 34.9 µM) | 353 | 409 |  |
| CCNC(=O)C(F)(F)C(O)(Cn1cncn1)c1ccc(F)cc1F (single isomer, unassigned) [Example 144] | 0.1 (≈ 0.289 µM) | 6.25 (≈ 18 µM) |  |  |  |
| NC(=O)C(F)(F)C(O)(Cn1cncn1)c1ccc(F)cc1Cl (single isomer, unassigned) [Example 146] | 0.39 (≈ 1.17 µM) | 50 (≈ 149 µM) | 500 | 418 | ≥ 200 |
| NC(=O)C(F)(F)C(O)(Cn1cncn1)c1ccc(F)cc1Cl (stereo not shown) [Example 79] | 0.78 (≈ 2.33 µM) | 50 (≈ 149 µM) | 400 | 405 | ≥ 200 |
| NC(=O)C(F)(F)C(O)(Cn1cncn1)c1ccc(F)cc1F (single isomer, unassigned) [Example 142] | 0.78 (≈ 2.45 µM) | 100 (≈ 314 µM) | 216 | 405 | ≥ 200 |
